Results as given in ChEMBL document CHEMBL1201862, “PubChem BioAssay data set” (2004).
Activity calls are given as the source filed them.

How the values were obtained:
[1] = biological target: Beta-galactosidase (Escherichia coli, UniProt Q8VNN2); test: PubChem AID 485352; format: functional
[2] = biological target: Type-1 angiotensin II receptor (Homo sapiens, UniProt P30556); test: antagonism of angiotensin II type 1 receptor – cell-based, uHTS hits, selectivity assay for APJ receptor antagonist project, dose response (AID 463214); format: functional;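 note: antagonist potency against angiotensin II stimulated AT1 response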
[3] = biological target: T1, Corticotropin-releasing factor receptor 2/Corticotropin-releasing factor-binding protein (Homo sapiens, UniProt P24387+Q13324); test: Dose Response confirmation of uHTS hits for small molecule antagonists of the CRF-binding protein and CRF-R2 receptor complex.; format: functional; conditions: read-out: IC50_Mean
T1 sequence (Q13324 whole entry): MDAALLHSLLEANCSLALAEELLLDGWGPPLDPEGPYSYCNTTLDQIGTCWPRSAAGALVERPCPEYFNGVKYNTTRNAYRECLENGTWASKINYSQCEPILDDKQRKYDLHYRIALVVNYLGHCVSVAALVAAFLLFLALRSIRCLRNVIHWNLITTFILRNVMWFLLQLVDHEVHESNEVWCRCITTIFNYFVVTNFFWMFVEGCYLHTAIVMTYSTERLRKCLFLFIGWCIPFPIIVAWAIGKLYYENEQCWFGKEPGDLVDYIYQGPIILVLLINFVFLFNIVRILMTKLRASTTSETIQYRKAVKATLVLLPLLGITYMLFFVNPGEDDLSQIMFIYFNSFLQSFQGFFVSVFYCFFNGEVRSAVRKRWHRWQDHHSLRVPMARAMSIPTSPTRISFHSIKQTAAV
T1 sequence (P24387 whole entry): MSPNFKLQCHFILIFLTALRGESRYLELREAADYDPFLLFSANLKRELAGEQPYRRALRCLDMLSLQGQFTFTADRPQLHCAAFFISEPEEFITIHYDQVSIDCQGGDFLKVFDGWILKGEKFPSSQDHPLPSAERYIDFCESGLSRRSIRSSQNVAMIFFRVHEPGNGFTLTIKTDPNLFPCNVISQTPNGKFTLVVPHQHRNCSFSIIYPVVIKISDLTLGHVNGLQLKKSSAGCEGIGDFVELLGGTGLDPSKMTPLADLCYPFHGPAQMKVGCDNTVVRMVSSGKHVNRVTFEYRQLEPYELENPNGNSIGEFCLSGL

[4] = biological target: T1, Corticotropin-releasing factor receptor 2/Corticotropin-releasing factor-binding protein; test: activators of CRF receptor 2 with binding protein – uHTS hits, confirmation (AID 602473); format: functional; conditions: read-out: EC50_Mean
[5] = test system: HEK293; test: cells; format: functional, cell-based; conditions: Homo sapiens
[6] = biological target: T2, Nuclear receptor subfamily 0 group B member 1 (Homo sapiens, UniProt P51843); test: Luminescence-based cell-based high throughput dose response assay for inhibitors of the orphan nuclear receptor subfamily 0, group B, member 1 (DAX1; NR0B1). [Related pubchem assays (depositor defined):AID504766, AID504790]; format: functional
T2 sequence (P51843 whole entry): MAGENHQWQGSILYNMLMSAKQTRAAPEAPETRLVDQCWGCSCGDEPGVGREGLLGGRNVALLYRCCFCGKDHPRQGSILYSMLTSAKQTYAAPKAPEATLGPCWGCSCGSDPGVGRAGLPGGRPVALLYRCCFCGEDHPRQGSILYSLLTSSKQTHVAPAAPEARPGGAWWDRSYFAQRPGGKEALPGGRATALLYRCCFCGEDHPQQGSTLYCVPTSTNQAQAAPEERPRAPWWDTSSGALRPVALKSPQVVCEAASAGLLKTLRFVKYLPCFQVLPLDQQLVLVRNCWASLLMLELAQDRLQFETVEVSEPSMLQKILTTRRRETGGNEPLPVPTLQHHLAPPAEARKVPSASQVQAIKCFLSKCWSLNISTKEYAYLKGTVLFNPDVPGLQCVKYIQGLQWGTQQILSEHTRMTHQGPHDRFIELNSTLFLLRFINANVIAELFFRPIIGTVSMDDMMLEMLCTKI

[7] = test system: HEK293; test: HEK293T cell viability loss, resazurin readout – resazurin fluorescence, cytotoxicity control for NF-kB activator project, SAR follow-up (AID 493251); format: functional, cell-based; conditions: Homo sapiens
[8] = test system: HEK293; test: SAR Analysis of small molecule inhibitors of T-cell specific antigen receptor-induced NF-kB activation in a HEK-293T cell line using a luminescence assay - Set 2. [Related pubchem assays (depositor defined):AID435003, AID435012, AID489026]; format: functional, cell-based; conditions: Homo sapiens
[9] = test system: Jurkat; test: SAR Analysis of small molecule inhibitors of T-cell specific antigen receptor-induced NF-kB activation in a Jurkat cell line using a luminescence assay - Set 2. [Related pubchem assays (depositor defined):AID435003, AID435012, AID465]; format: functional, cell-based; conditions: Homo sapiens
[10] = test system: Jurkat; test: blockers of NF-kB activation in T cells – Jurkat, luciferase reporter, luminescence, B- and T-cell, dose response (AID 489004); format: functional, cell-based; conditions: Homo sapiens;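 note: NF-kB luciferase reporter Jurkat cells stimulated with PMA plus ionomycin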
[11] = A549 cell cytotoxicity, dose response, cytotoxicity control, plate reader, cherry-pick, antagonist series (AID 743412); format: functional, cell-based
[12] = HIV-1 AD8 envelope cell-cell fusion blockers – cherry-pick, dose response (AID 652062); format: functional, cell-based;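 note: luciferase signal from cell-cell fusion driven by HIV-1 clade B AD8 Env; potency is for inhibitors of fusion seen as a drop in luminescence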
[13] = off-target signal loss in HeLa-CEM21 co-culture – HeLa F-luc CTL cells, cherry-picked, counter-screen for HIV-1 Env fusion inhibitor project, dose response (AID 652040); format: functional, cell-based;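 note: potency for signal decrease marking cytotoxic or nonspecific inhibition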
[14] = blockade of melanocortin 4 receptor signaling – cell-based, plate reader, cherry pick, counter-screen for LGR2 antagonist project, dose response (AID 743444); format: functional;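 note: transfected HEK 293 cells stimulated with alpha-MSH peptide; potency of inhibitors of the alpha-MSH evoked signal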
[15] = biological target: T3, Aspartyl aminopeptidase (Plasmodium falciparum 3D7, UniProt Q8I2J3); test: Counterscreen for inhibitors of M1 and M17 aminopeptidases: QFRET-based biochemical high throughput dose response assay for inhibitors of the Plasmodium falciparum M18 Aspartyl Aminopeptidase (PFM18AAP). [Related PubChem assays: 1619 (Screening assay (M17LAP inhibitors).), 1445 (Screening assay (M1AAP inhibitors).)]
T3 sequence (Q8I2J3 whole entry): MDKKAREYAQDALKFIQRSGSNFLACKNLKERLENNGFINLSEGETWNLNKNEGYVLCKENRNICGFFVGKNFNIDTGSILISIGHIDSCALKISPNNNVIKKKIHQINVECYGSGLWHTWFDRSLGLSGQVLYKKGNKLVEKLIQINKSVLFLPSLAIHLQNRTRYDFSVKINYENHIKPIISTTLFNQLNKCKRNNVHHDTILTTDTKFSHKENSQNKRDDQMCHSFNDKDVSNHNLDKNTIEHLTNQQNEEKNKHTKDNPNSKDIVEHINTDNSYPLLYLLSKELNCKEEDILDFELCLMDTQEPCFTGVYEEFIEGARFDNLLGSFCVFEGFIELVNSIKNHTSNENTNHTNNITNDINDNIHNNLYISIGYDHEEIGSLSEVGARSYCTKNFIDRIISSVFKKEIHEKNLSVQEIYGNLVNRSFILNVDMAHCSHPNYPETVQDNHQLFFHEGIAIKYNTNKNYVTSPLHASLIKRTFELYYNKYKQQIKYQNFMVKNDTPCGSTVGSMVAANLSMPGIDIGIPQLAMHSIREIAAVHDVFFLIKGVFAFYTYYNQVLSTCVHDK

[16] = biological target: T4, Microphthalmia-associated transcription factor (Homo sapiens, UniProt O75030); test: reducers of TRPM1 reporter luminescence, concentration series – cell-based, SK-MEL-5, cherry-picked, set 3, MITF inhibitor project, dose response (AID 493073); format: functional;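 note: SK-MEL-5 melanoma cells with luciferase driven by the MITF target TRPM1 promoter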
T4 sequence (O75030 whole entry): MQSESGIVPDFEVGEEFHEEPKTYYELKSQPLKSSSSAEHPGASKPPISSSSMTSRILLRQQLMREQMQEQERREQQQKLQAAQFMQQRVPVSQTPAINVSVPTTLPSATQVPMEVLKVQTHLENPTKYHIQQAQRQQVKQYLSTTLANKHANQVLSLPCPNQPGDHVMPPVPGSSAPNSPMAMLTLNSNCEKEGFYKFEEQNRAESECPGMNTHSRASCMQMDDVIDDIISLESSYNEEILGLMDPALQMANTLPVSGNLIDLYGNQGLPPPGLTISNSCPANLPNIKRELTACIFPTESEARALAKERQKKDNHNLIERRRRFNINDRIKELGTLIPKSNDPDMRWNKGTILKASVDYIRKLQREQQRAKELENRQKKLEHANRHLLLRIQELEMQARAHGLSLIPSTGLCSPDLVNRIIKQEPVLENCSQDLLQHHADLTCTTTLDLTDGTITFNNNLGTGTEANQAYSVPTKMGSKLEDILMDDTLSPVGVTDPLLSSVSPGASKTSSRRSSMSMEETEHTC

[17] = biological target: T5, Leucine aminopeptidase (Plasmodium falciparum 3D7, UniProt Q8IL11); test: P. falciparum M17LAP inhibitors, primary screen, biochemical, fluorogenic H-Leu-NHMec substrate, 1536-well (AID 1619); format: functional
T5 sequence (Q8IL11 whole entry): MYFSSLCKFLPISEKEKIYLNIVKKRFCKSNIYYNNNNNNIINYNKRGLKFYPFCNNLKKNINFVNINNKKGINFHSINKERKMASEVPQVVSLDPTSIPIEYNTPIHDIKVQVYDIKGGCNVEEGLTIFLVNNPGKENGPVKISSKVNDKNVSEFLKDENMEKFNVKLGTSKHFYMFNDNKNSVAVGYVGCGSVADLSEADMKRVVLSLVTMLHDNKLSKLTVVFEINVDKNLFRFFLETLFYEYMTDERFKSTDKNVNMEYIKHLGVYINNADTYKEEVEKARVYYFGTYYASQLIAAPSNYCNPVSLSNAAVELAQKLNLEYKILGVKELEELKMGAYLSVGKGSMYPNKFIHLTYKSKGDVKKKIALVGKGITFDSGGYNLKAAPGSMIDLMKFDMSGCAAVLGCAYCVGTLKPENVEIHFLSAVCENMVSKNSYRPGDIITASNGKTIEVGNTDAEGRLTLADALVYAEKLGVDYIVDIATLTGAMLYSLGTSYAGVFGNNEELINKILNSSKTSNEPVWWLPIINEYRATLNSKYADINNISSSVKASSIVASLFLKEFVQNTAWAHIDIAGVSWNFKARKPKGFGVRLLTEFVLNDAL

[18] = biological target: Procathepsin L (Homo sapiens, UniProt P07711); test: CTSL1 protease inhibition – biochemical, QFRET, 1536-well, counter-screen for M1/M17 aminopeptidase inhibitor project, dose response (AID 2214)
[19] = blockers of HIV-1 envelope-mediated cell-cell fusion – cherry-pick, dose response (AID 652057); format: functional, cell-based
[20] = blockers of bursicon-stimulated LGR2 cAMP reporter – cell-based, HEK293, CRE-luciferase reporter, cherry pick, set 2, dose response (AID 743343); format: functional;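 note: transfected cells were stimulated with diluted bursicon conditioned medium after compound addition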
[21] = HEK-293T viability loss, compound-treated – cell-based, uHTS hits, cytotoxicity control for B/T-cell NF-kB inhibitor project, dose response (AID 489019); format: functional;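 note: IC50 reflects cytotoxicity as loss of cell viability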

Chain of Beta-galactosidase (Q8VNN2 whole entry): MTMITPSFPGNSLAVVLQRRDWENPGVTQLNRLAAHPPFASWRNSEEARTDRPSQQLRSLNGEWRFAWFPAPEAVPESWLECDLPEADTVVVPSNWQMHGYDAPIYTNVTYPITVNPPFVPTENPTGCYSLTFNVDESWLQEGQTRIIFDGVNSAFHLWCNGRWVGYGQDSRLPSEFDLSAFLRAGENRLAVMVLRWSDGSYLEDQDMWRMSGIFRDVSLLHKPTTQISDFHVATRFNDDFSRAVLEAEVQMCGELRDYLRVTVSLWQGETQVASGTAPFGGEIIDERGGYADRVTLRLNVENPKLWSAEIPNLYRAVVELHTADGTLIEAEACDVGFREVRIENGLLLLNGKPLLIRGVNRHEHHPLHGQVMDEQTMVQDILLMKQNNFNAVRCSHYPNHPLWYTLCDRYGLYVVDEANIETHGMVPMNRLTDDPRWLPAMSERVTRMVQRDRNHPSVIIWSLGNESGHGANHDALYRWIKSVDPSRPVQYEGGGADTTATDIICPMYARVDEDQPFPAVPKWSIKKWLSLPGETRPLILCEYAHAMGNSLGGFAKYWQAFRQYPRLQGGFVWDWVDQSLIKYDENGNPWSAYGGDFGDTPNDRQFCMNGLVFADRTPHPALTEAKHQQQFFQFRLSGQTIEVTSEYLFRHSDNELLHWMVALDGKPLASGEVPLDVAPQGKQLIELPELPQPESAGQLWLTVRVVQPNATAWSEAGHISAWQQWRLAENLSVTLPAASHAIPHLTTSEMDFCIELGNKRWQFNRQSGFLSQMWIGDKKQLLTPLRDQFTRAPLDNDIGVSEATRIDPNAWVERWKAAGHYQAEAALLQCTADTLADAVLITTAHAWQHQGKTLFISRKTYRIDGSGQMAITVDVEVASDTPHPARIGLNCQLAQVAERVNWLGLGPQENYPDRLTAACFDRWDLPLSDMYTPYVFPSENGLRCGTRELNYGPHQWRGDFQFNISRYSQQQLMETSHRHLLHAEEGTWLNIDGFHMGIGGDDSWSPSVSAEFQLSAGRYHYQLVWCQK
Chain of Type-1 angiotensin II receptor (P30556 whole entry): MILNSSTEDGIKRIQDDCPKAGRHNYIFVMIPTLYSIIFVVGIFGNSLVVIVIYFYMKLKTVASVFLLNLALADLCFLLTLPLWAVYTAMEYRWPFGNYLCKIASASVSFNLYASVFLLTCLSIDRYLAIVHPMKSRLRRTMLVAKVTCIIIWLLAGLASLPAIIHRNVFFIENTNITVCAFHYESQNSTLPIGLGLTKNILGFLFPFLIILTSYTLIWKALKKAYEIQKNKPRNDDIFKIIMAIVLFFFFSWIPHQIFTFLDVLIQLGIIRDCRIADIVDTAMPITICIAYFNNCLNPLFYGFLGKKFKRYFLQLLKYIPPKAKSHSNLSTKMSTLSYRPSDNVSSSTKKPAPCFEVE
Chain of Procathepsin L (P07711 whole entry, the tested form may be a part): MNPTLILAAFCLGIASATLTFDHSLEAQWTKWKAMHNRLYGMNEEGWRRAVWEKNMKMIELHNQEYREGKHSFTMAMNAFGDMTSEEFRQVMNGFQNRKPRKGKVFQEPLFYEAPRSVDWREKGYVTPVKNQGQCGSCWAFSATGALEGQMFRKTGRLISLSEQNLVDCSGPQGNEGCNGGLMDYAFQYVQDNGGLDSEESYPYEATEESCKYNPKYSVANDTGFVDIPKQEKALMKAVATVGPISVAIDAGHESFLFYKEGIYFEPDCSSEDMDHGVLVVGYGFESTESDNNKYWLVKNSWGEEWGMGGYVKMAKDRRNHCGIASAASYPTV

## CC(C(=O)OCC(=O)c1cccc([N+](=O)[O-])c1)N1C(=O)C2C3CCC(C3)C2C1=O (stereo not drawn)
[1]
  EC50: > 40 µM (inactive)
[2]
  IC50: 24.4 µM (not active)

## ON1C(c2ccc(Cl)cc2Cl)N(O)[C@H]2CCCC[C@H]21 (stereo partly drawn)
[3]
  IC50: > 47.1 µM (inactive)
[1]
  EC50: > 40 µM (inactive)
[4]
  EC50: > 53 µM (inactive)
[2]
  IC50: 17.7 µM (active)

## Cc1ccc(NC(=O)c2ccccc2F)c(NC(=O)c2ccccc2F)c1
[5]
  IC50: > 67.5 µM (inactive)
[6]
  IC50: > 67.5 µM (inactive)

## COc1ccc(C(NC(=O)CC(C)C)c2ccc3cccnc3c2O)cc1OC (stereo not drawn)
[7]
  IC50: 20.1 µM (inactive)
[8]
  IC50: 6.6 µM (active)
[9]
  IC50: 5.48 µM (active)

## Cc1nn(-c2ccccc2)c(Cl)c1C(=O)N1CCN(C)CC1
[5]
  IC50: > 67.5 µM (inactive)
[6]
  IC50: > 67.5 µM (inactive)

## CCC(=O)NC(c1ccc(N(C)C)cc1)c1ccc2cccnc2c1O (stereo not drawn)
[7]
  IC50: 18.4 µM (active)
[8]
  IC50: 7 µM (active)
[9]
  IC50: 2.67 µM (active)

## O=C(Nc1ccc(Cl)cc1)Nc1cccc(C(=O)O)c1
[10]
  IC50: 3.35 µM (active)
[11]
  AC50: > 52 µM (inactive)
[12]
  AC50: 2.51 µM (active)
[13]
  AC50: 2.95 µM (active)
[14]
  AC50: 1.88 µM (active)
[15]
  IC50: > 73.5 µM (not active)
[16]
  AC50: 3.79 µM (active)
[17]
  IC50: < 1 µM (active)
[18]
  IC50: > 59.6 µM (not active)
[19]
  AC50: 2.22 µM (active)
[20]
  AC50: 2.93 µM (active)
[21]
  IC50: > 80 µM (inactive)
